Structures are written as SMILES. Bounds are passed on as bounds.

Assay [1] has as its system MDA-MB-231 cells. Put plainly: MTT assay, 72 h, MDA-MB-231. The assay is classed as cell-based. The note with it: Homo sapiens, mean ± SD. As for the experimental part: (§1) The cytotoxic potential of the synthesized compounds was investigated using the MTT assay after 72 h incubation with a panel of human and murine cancer cell lines, including colorectal carcinoma (HCT116), estrogen receptor-positive breast adenocarcinoma (MCF-7), triple-negative breast adenocarcinoma (MDA-MB-231), epidermoid carcinoma (KB3-1), myeloid leukemia (K562), and glioblastoma (U373), and mouse breast carcinoma (4T1) cells. To assess the selectivity of the compounds, pseudo-normal cell lines—human keratinocytes (HaCaTs) and mouse fibroblasts (NIH3T3s)—were also tested under the same conditions.
(§2) Human breast adenocarcinoma cells of MCF-7 and MDA-MB-231 lines, human glioblastoma cells of U373 line, human chronic myelogenous leukemia cells of K562 line, human colorectal carcinoma cells of HCT116 line, and human epidermoid carcinoma cells of KB3-1 line were kindly donated by a Collection of the Institute for Cancer Research at Vienna Medical University (Vienna, Austria). Human keratinocytes of HaCaT line, murine breast carcinoma cells of 4T1 line, and murine fibroblasts of the NIH3T3 line were obtained from the Cell Collection of the R.E. Kavetsky Institute of Experimental Pathology, Oncology and Radiobiology of the National Academy of Sciences of Ukraine (Kyiv, Ukraine). MCF-7, MDA-MB-231, U373, K562, HaCaT, and NIH3T3 cells were cultured in DMEM medium (Sigma-Aldrich, Burlington, MA, USA) supplemented with 2 mM L-glutamine, 4500 mg/L glucose, and 1 mM sodium pyruvate. HCT116 and KB3-1 cells were maintained in RPMI-1640 medium supplemented with 2 mM L-glutamine (Sigma-Aldrich, USA). Both media were supplemented with 10% fetal bovine serum (Sigma-Aldrich, USA). All cell lines were incubated at 37 °C in a humidified atmosphere containing 5% CO2.
(§3) The substrate cells were seeded at a density of 5000 cells per 100 µL, while suspension K562 cells were seeded at 15,000 cells per 100 µL in 96-well plates and incubated overnight. Doxorubicin (Dox, Sigma-Aldrich, USA) was used as a reference drug. Studied substances were then added in 100 µL of culture medium, and the cells were further incubated for 72 h. Subsequently, 20 µL of MTT solution (5 mg/mL, Sigma-Aldrich, USA) was added to each well and incubated for 2–4 h. Formazan crystals were then solubilized by adding dimethyl sulfoxide (Sigma-Aldrich, USA). Absorbance was measured using a BioTek ELx800 Absorbance Reader (BioTek Instruments, Inc., Winooski, VT, USA). The results were analyzed and illustrated using GraphPad Prism (version 8.0.1; GraphPad Software, San Diego, CA, USA) and presented as a mean (M) ± standard deviation (SD). The IC50 values of the compounds were determined using nonlinear regression analysis in GraphPad Prism 10.4.2 [40].
Background: Formazan colour is commonly taken as a measure of viable cells.

The subject of assay [2] is cancer cell lines. Nature of the assay: MTT assay, panel of cancer cell lines. The format is cell-based. The note with it: 72 h, summary over the cancer cell panel, read-out: IC50 for most cancer lines. As for the experimental part:
as §1, §3

Assay [3] relates to MCF-7 cells. Nature of the assay: MTT assay, 72 h, MCF-7. The format is cell-based. The note with it: Homo sapiens, MCF7, mean ± SD. The protocol: as §1, §2
as §3, with “Doxorubicin (Dox, Sigma-Aldrich, USA) was used as a reference drug.” left out

The test system of assay [4] is U373 cells. Put plainly: MTT assay, 72 h, U373. The format is cell-based. The note with it: Homo sapiens, U373 MG, mean ± SD. The protocol:
as §1, §2, §3

Assay [5] deals with NIH3T3 cells. Nature of the assay: MTT assay, 72 h, NIH3T3 (pseudo-normal). The assay is classed as cell-based. The note with it: Mus musculus, mean ± SD. The protocol: as §1, §2, §3
The test system of assay [6] is 4T1 cells. Nature of the assay: MTT assay, 72 h, 4T1. The assay is classed as cell-based. The note with it: Mus musculus, mean ± SD. As for the experimental part:
as §1, §2, §3

For assay [7], the system named is HaCaT cells. Put plainly: MTT assay, 72 h, HaCaT (pseudo-normal). The format is cell-based. The note with it: Homo sapiens, mean ± SD. As for the experimental part:
as §1, §2, §3

Assay [8] deals with KB3-1 cells. Nature of the assay: MTT assay, 72 h, KB3-1. The format is cell-based. The following applies: Homo sapiens, KB 3-1, mean ± SD. The protocol: as §1, §2, §3
The subject of assay [9] is HCT116 cells. Put plainly: MTT assay, 72 h, HCT116. The assay is classed as cell-based. The note with it: Homo sapiens, HCT-116, mean ± SD. The protocol:
as §1, §2, §3

The subject of assay [10] is K562 cells. Nature of the assay: MTT assay, 72 h, K562. The format is cell-based. The following applies: Homo sapiens, mean ± SD. As for the experimental part:
as §1, §2, §3

For assay [11], the system named is p53 expression in normal BJ cells. Further details: method as in PMID 38920636. The note with it: normal BJ cells ref 34; cited from earlier work.
Assay [12] deals with p53 expression in A549 lung cancer cells. Further details: method as in PMID 38920636. The note with it: A549 lung cancer cells ref 34; cited from earlier work.
Assay [13] has as its system PPARγ. Set-up: method as in PMID 38920636. The note with it: cited from earlier work.

As usually defined, the IC50 is the point on the concentration scale where inhibition reaches its midpoint. In the case of `COc1ccc(N2C(=O)/C(=C/c3ccc(N4CCOCC4)cc3)SC23C(=O)Nc2ccc(Cl)cc23)cc1` (stereo not drawn) [Compound 8, (Z)-5-Chloro-3′-(4-methoxyphenyl)-5′-(4-morpholinobenzylidene)spiro[indoline-3,2′-thiazolidine]-2,4′-dione], the IC50 in assay [1], in [2], in assay [3], in assay [4], in assay [5] and in [6] was over 100 µM in each case. Moreover, the IC50 in [7] was over 100 µM; in assay [8], 75.9 ± 4.21 µM; in assay [9], over 100 µM; in assay [10], over 100 µM.
For the compound `O=C1/C(=C/c2ccc(-c3ccccn3)cc2)SC2(C(=O)Nc3ccc(Cl)cc32)N1c1ccc(Cl)cc1` (stereo not drawn) [Compound 13, (Z)-5-Chloro-3′-(4-chlorophenyl)-5′-(4-(pyridin-2-yl)benzylidene)spiro[indoline-3,2′-thiazolidine]-2,4′-dione], the concentration for half-maximal inhibition (IC50) in assay [1], in [3], in assay [4], in assay [5], in assay [6] and in assay [7] was over 100 µM each time. The concentration for half-maximal inhibition (IC50) came to 0.99 ± 0.08 µM in [8], 41.4 ± 0.62 µM in assay [9] and 5.55 ± 0.17 µM in [10].
Take `CCOc1ccc(/C=C2\SC3(C(=O)Nc4ccc(Br)cc43)N(c3ccc(Br)cc3)C2=O)cc1` (stereo not drawn) [Compound 14, (Z)-5-Bromo-3′-(4-bromophenyl)-5′-(4-ethoxybenzylidene)spiro[indoline-3,2′-thiazolidine]-2,4′-dione]: the concentration for half-maximal inhibition (IC50) in assay [1] is 60.2 ± 0.62 µM; in [2], over 100 µM; in [3], over 100 µM; in assay [4], 89.52 ± 0.81 µM; in assay [5] it was over 100 µM; in assay [6], over 100 µM. Moreover, the IC50 in assay [7] was over 100 µM; in [8], 19.6 ± 0.23 µM; in [9] it was over 100 µM; in [10] it was over 100 µM.
As to `CC(C)(C)c1ccc(/C=C2\SC3(C(=O)Nc4ccc(Cl)cc43)N(c3ccc(Cl)cc3)C2=O)cc1` (stereo not drawn) [Compound 15, (Z)-5′-(4-(Tert-butyl)benzylidene)-5-chloro-3′-(4-chlorophenyl)spiro[indoline-3,2′-thiazolidine]-2,4′-dione], the IC50 in assay [1] was 30.7 ± 0.45 µM; in assay [3], 77.4 ± 2.9 µM; in [4], 79.3 ± 1.31 µM; in assay [5], 90.32 ± 0.68 µM; in assay [6], 46.6 ± 2.98 µM; in assay [7], over 100 µM. Further, the half-inhibitory concentration (IC50) in assay [8] was 9.77 ± 0.78 µM; in [9], over 100 µM; in [10], over 100 µM.
For `CC(C)(C)c1ccc(/C=C2\SC3(C(=O)Nc4ccc(Br)cc43)N(c3ccc(Br)cc3)C2=O)cc1` (stereo not drawn) [Compound 16, (Z)-5-Bromo-3′-(4-bromophenyl)-5′-(4-(tert-butyl)benzylidene)spiro[indoline-3,2′-thiazolidine]-2,4′-dione], the IC50 is 53.27 ± 0.51 µM in assay [1]; over 100 µM in assay [3]; over 100 µM in assay [4]; over 100 µM in assay [5]; 69 ± 5.11 µM in assay [6]; over 100 µM in assay [7]. Besides, the IC50 in assay [8] is 29.5 ± 0.33 µM; in assay [9], over 100 µM; in assay [10], over 100 µM.
Consider `CC(C)(C)c1ccc(/C=C2\SC3(C(=O)Nc4ccc(Cl)cc43)N(Cc3ccccc3)C2=O)cc1` (stereo not drawn) [Compound 17, (Z)-3′-Benzyl-5′-(4-(tert-butyl)benzylidene)-5-chlorospiro[indoline-3,2′-thiazolidine]-2,4′-dione], for which the IC50 came out at 13.5 ± 2.21 µM in assay [1]; 6.64 ± 0.39 µM in [3]; 32.26 ± 0.25 µM in assay [4]; 91 ± 1.34 µM in [5]; 66 ± 4.48 µM in assay [6]; 10.6 ± 0.21 µM in [7]. Besides, the IC50 came to 5.85 ± 0.42 µM in assay [8], 8.24 ± 0.26 µM in assay [9] and 67.9 ± 0.81 µM in assay [10].
Consider `CC(C)(C)c1ccc(/C=C2\SC3(C(=O)Nc4ccc(F)cc43)N(Cc3ccccc3)C2=O)cc1` (stereo not drawn) [Compound 18, (Z)-3′-Benzyl-5′-(4-(tert-butyl)benzylidene)-5-fluorospiro[indoline-3,2′-thiazolidine]-2,4′-dione], for which the IC50 in assay [1] was 6.67 ± 0.15 µM; in assay [2] it was 6.67 to 8.37 µM; in [3], 6.99 ± 0.16 µM; in assay [4] it was 29.8 ± 0.35 µM; in assay [5] it was 98.39 ± 0.66 µM; in assay [6], 46.7 ± 1.19 µM. Besides, the 50% inhibitory concentration (IC50) is over 100 µM in [7], 7.92 ± 0.65 µM in assay [8], 8.37 ± 0.51 µM in assay [9] and 37.4 ± 0.49 µM in assay [10].
As to `CCOc1ccc(/C=C2\SC3(C(=O)Nc4ccc(F)cc43)N(Cc3ccccc3)C2=O)cc1` (stereo not drawn) [Compound 19, (Z)-3′-Benzyl-5′-(4-ethoxybenzylidene)-5-fluorospiro[indoline-3,2′-thiazolidine]-2,4′-dione], the half-inhibitory concentration (IC50) in assay [1] was 59.3 ± 2.27 µM; in [3], 63.9 ± 0.59 µM; in assay [4] it was 54.89 ± 0.33 µM; in assay [5], 94.35 ± 0.87 µM; in [6], 60.5 ± 1.84 µM; in assay [7], 96.79 ± 0.78 µM. Besides, the IC50 was 35 ± 0.48 µM in assay [8], 62.7 ± 0.76 µM in assay [9] and over 100 µM in assay [10].
Regarding `CC(C)c1ccc(/C=C2\SC3(C(=O)Nc4ccccc43)N(c3ccc(Cl)cc3)C2=O)cc1` (stereo not drawn) [Les-3467], the p53 expression entry in assay [11] was “increasing its levels”; in assay [12], “decreasing it”. The PPARγ modulation result in assay [13] is “acts as a PPARγ modulator”.

(Values after PMC12567349, “Design and Optimization of Spiro-Isatin-Thiazolidinone Hybrids with Promising Anticancer Activity” (Pharmaceuticals, 2025).)
